Three compounds from US20240300932A1, “N-PHENYLIMINE DERIVATIVE AND PREPARATION METHOD AND USE THEREOF” (Guizhou University, priority 2023, published 2024) can be followed below.

SMILES strings stand for the structures.

The subject of one data set is Trifoliumre pensL. The data set is described as follows: Post-emergence herbicidal activity test (stem and leaf spray, pot culture). Particulars: 3 weeks after spraying. The format is in vivo. In short, it runs like this: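 Rates of 10, 5 and 2.5 g/mu were applied in a single spray-tower treatment to 2–3-leaf plants, thinned to 10 per pot. Formulation: acetone solution, Tween 80, 1.5 L/ha methyl oleate synergist. Weed response assessed after 3 further greenhouse weeks; mean of three experiments.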

A further data set has as its system Portulaca oleracea. Described as above. In kind it is in vivo. The settings on record: 3 weeks after spraying. In short, it runs like this: (§1)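 Read-out: fresh weight control rate 3 weeks post-spray, graded 5 (≥85%) down to 0 (<5%). Foliar spray at 2–3-leaf stage; rates 10, 5, 2.5 g/mu; acetone + Tween 80 formulation with methyl oleate synergist; greenhouse 20–30 °C, natural light.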

The subject of another data set is Abutilon theophrasti. Described as above. In kind it is in vivo. The settings on record: 3 weeks after spraying. The method, boiled down:
as §1

The subject of the next data set is Echinochloa crusgalli. The data set is described as above. Particulars: 3 weeks after spraying. The format is in vivo. In short, it runs like this: as §1
For the next data set, the system named is Amaranthus retroflexus. The description is as above. The format is in vivo. Particulars: 3 weeks after spraying. In short, it runs like this:
as §1

In another data set the test system is Setaria viridis. The description is as above. The format is in vivo. Particulars: 3 weeks after spraying. In short, it runs like this: as §1

`O=C1C2=C(CCCC2)C(=O)N1c1cc(OCc2nnc(-c3cccc(Cl)c3)o2)c(Cl)cc1F` [Compound B2, 2-(4-chloro-5-((5-(3-chlorophenyl)-1,3,4-oxadiazole-2-yl)methoxy)-2-fluorophenyl)-4,5,6,7-tetrahydro-1H-isoindole-1,3(2H)-dione] displayed a melting point of 158 to 162 °C. Besides, in the data set with Trifoliumre pensL. (dosage 2.5 g/mu), the “Post-emergence herbicidal activity, Trifoliumre pensL. (grade)” value is recorded as 5 (Grade 5: the growth control rate is greater than or equal to 85%). Also, the “Post-emergence herbicidal activity, Trifoliumre pensL. (grade)” value with Trifoliumre pensL. (dosage 5 g/mu) was 5 (Grade 5: the growth control rate is greater than or equal to 85%). In addition, the “Post-emergence herbicidal activity, Trifoliumre pensL. (grade)” value with Trifoliumre pensL. (dosage 10 g/mu) is listed as 5 (Grade 5: the growth control rate is greater than or equal to 85%). In addition, in the data set on Portulaca oleracea (dosage 2.5 g/mu), the “Post-emergence herbicidal activity, P. oleracea (grade)” value was 5 (Grade 5: the growth control rate is greater than or equal to 85%). Further, the “Post-emergence herbicidal activity, P. oleracea (grade)” value in the data set on Portulaca oleracea (dosage 5 g/mu) is given as 5 (Grade 5: the growth control rate is greater than or equal to 85%). Also, in the data set with Portulaca oleracea (dosage 10 g/mu), the “Post-emergence herbicidal activity, P. oleracea (grade)” value is recorded as 5 (Grade 5: the growth control rate is greater than or equal to 85%). In addition, the “Post-emergence herbicidal activity, A. theophrasti (grade)” value with Abutilon theophrasti (dosage 2.5 g/mu) is on record as 5 (Grade 5: the growth control rate is greater than or equal to 85%). In addition, the “Post-emergence herbicidal activity, A. theophrasti (grade)” value in the data set with Abutilon theophrasti (dosage 5 g/mu) is 5 (Grade 5: the growth control rate is greater than or equal to 85%). Further, in the data set on Abutilon theophrasti (dosage 10 g/mu), the “Post-emergence herbicidal activity, A. theophrasti (grade)” value is given as 5 (Grade 5: the growth control rate is greater than or equal to 85%). Besides, the “Post-emergence herbicidal activity, E. crusgalli (grade)” value in the data set on Echinochloa crusgalli (dosage 2.5 g/mu) is 1 (Grade 1: the growth control rate is greater than or equal to 5% and less than 20%). For the same compound, the “Post-emergence herbicidal activity, E. crusgalli (grade)” value in the data set with Echinochloa crusgalli (dosage 5 g/mu) was 2 (Grade 2: the growth control rate is greater than or equal to 20% and less than 40%). Further, the “Post-emergence herbicidal activity, E. crusgalli (grade)” value in the data set with Echinochloa crusgalli (dosage 10 g/mu) is 3 (Grade 3: the growth control rate is greater than or equal to 40% and less than 60%). In addition, in the data set with Amaranthus retroflexus (dosage 2.5 g/mu), the “Post-emergence herbicidal activity, A. retroflexus (grade)” value is listed as 5 (Grade 5: the growth control rate is greater than or equal to 85%). For the same compound, the “Post-emergence herbicidal activity, A. retroflexus (grade)” value in the data set on Amaranthus retroflexus (dosage 5 g/mu) is recorded as 5 (Grade 5: the growth control rate is greater than or equal to 85%). For the same compound, in the data set on Amaranthus retroflexus (dosage 10 g/mu), the “Post-emergence herbicidal activity, A. retroflexus (grade)” value is 5 (Grade 5: the growth control rate is greater than or equal to 85%). In addition, the “Post-emergence herbicidal activity, S. viridis (grade)” value in the data set on Setaria viridis (dosage 2.5 g/mu) is 2 (Grade 2: the growth control rate is greater than or equal to 20% and less than 40%). For the same compound, the “Post-emergence herbicidal activity, S. viridis (grade)” value with Setaria viridis (dosage 5 g/mu) was 3 (Grade 3: the growth control rate is greater than or equal to 40% and less than 60%). Besides, the “Post-emergence herbicidal activity, S. viridis (grade)” value in the data set with Setaria viridis (dosage 10 g/mu) was 4 (Grade 4: the growth control rate is greater than or equal to 60% and less than 85%).
Consider `Cc1ccccc1-c1nnc(COc2cc(N3C(=O)C4=C(CCCC4)C3=O)c(F)cc2Cl)o1` [Compound B9, 2-(4-chloro-2-fluoro-5-((5-(2-tolyl)-1,3,4-oxadiazole-2-yl)methoxy)phenyl)-4,5,6,7-tetrahydro-1H-isoindole-1,3(2H)-dione], for which the melting point lay in the range of 144 to 147 °C. Further, the “Post-emergence herbicidal activity, Trifoliumre pensL. (grade)” value in the data set on Trifoliumre pensL. (dosage 2.5 g/mu) is listed as 5 (Grade 5: the growth control rate is greater than or equal to 85%). For the same compound, in the data set with Trifoliumre pensL. (dosage 5 g/mu), the “Post-emergence herbicidal activity, Trifoliumre pensL. (grade)” value was 5 (Grade 5: the growth control rate is greater than or equal to 85%). In the data set on Trifoliumre pensL. (dosage 10 g/mu), the “Post-emergence herbicidal activity, Trifoliumre pensL. (grade)” value is given as 5 (Grade 5: the growth control rate is greater than or equal to 85%). Also, the “Post-emergence herbicidal activity, P. oleracea (grade)” value with Portulaca oleracea (dosage 2.5 g/mu) is given as 5 (Grade 5: the growth control rate is greater than or equal to 85%). Besides, the “Post-emergence herbicidal activity, P. oleracea (grade)” value in the data set with Portulaca oleracea (dosage 5 g/mu) is on record as 5 (Grade 5: the growth control rate is greater than or equal to 85%). The “Post-emergence herbicidal activity, P. oleracea (grade)” value with Portulaca oleracea (dosage 10 g/mu) was 5 (Grade 5: the growth control rate is greater than or equal to 85%). For the same compound, the “Post-emergence herbicidal activity, A. theophrasti (grade)” value in the data set with Abutilon theophrasti (dosage 2.5 g/mu) is 5 (Grade 5: the growth control rate is greater than or equal to 85%). In addition, the “Post-emergence herbicidal activity, A. theophrasti (grade)” value in the data set with Abutilon theophrasti (dosage 5 g/mu) is on record as 5 (Grade 5: the growth control rate is greater than or equal to 85%). For the same compound, the “Post-emergence herbicidal activity, A. theophrasti (grade)” value in the data set on Abutilon theophrasti (dosage 10 g/mu) was 5 (Grade 5: the growth control rate is greater than or equal to 85%). For the same compound, the “Post-emergence herbicidal activity, E. crusgalli (grade)” value with Echinochloa crusgalli (dosage 2.5 g/mu) is 1 (Grade 1: the growth control rate is greater than or equal to 5% and less than 20%). Moreover, the “Post-emergence herbicidal activity, E. crusgalli (grade)” value in the data set on Echinochloa crusgalli (dosage 5 g/mu) was 2 (Grade 2: the growth control rate is greater than or equal to 20% and less than 40%). Besides, the “Post-emergence herbicidal activity, E. crusgalli (grade)” value with Echinochloa crusgalli (dosage 10 g/mu) was 3 (Grade 3: the growth control rate is greater than or equal to 40% and less than 60%). Also, the “Post-emergence herbicidal activity, A. retroflexus (grade)” value in the data set with Amaranthus retroflexus (dosage 2.5 g/mu) was 5 (Grade 5: the growth control rate is greater than or equal to 85%). Further, the “Post-emergence herbicidal activity, A. retroflexus (grade)” value in the data set with Amaranthus retroflexus (dosage 5 g/mu) is 5 (Grade 5: the growth control rate is greater than or equal to 85%). For the same compound, in the data set with Amaranthus retroflexus (dosage 10 g/mu), the “Post-emergence herbicidal activity, A. retroflexus (grade)” value is reported as 5 (Grade 5: the growth control rate is greater than or equal to 85%). Moreover, the “Post-emergence herbicidal activity, S. viridis (grade)” value in the data set with Setaria viridis (dosage 2.5 g/mu) is 2 (Grade 2: the growth control rate is greater than or equal to 20% and less than 40%). In addition, in the data set with Setaria viridis (dosage 5 g/mu), the “Post-emergence herbicidal activity, S. viridis (grade)” value was 3 (Grade 3: the growth control rate is greater than or equal to 40% and less than 60%). Also, the “Post-emergence herbicidal activity, S. viridis (grade)” value with Setaria viridis (dosage 10 g/mu) is 4 (Grade 4: the growth control rate is greater than or equal to 60% and less than 85%).
For the compound `Cc1ccc(-c2nnc(COc3cc(N4C(=O)C5=C(CCCC5)C4=O)c(F)cc3Cl)o2)cc1` [Compound B13, 2-(4-chloro-2-fluoro-5-((5-(4-tolyl)-1,3,4-oxadiazole-2-yl)methoxy)phenyl)-4,5,6,7-tetrahydro-1H-isoindole-1,3(2H)-dione], the melting point was 104 to 106 °C. Also, the “Post-emergence herbicidal activity, Trifoliumre pensL. (grade)” value in the data set on Trifoliumre pensL. (dosage 2.5 g/mu) was 5 (Grade 5: the growth control rate is greater than or equal to 85%). Further, in the data set on Trifoliumre pensL. (dosage 5 g/mu), the “Post-emergence herbicidal activity, Trifoliumre pensL. (grade)” value was 5 (Grade 5: the growth control rate is greater than or equal to 85%). Besides, the “Post-emergence herbicidal activity, Trifoliumre pensL. (grade)” value in the data set on Trifoliumre pensL. (dosage 10 g/mu) is 5 (Grade 5: the growth control rate is greater than or equal to 85%). Also, in the data set on Portulaca oleracea (dosage 2.5 g/mu), the “Post-emergence herbicidal activity, P. oleracea (grade)” value is given as 5 (Grade 5: the growth control rate is greater than or equal to 85%). Further, the “Post-emergence herbicidal activity, P. oleracea (grade)” value with Portulaca oleracea (dosage 5 g/mu) is on record as 5 (Grade 5: the growth control rate is greater than or equal to 85%). Besides, in the data set with Portulaca oleracea (dosage 10 g/mu), the “Post-emergence herbicidal activity, P. oleracea (grade)” value was 5 (Grade 5: the growth control rate is greater than or equal to 85%). The “Post-emergence herbicidal activity, A. theophrasti (grade)” value in the data set on Abutilon theophrasti (dosage 2.5 g/mu) is reported as 5 (Grade 5: the growth control rate is greater than or equal to 85%). Further, the “Post-emergence herbicidal activity, A. theophrasti (grade)” value with Abutilon theophrasti (dosage 5 g/mu) is recorded as 5 (Grade 5: the growth control rate is greater than or equal to 85%). Further, the “Post-emergence herbicidal activity, A. theophrasti (grade)” value in the data set with Abutilon theophrasti (dosage 10 g/mu) was 5 (Grade 5: the growth control rate is greater than or equal to 85%). Besides, in the data set on Echinochloa crusgalli (dosage 2.5 g/mu), the “Post-emergence herbicidal activity, E. crusgalli (grade)” value was 1 (Grade 1: the growth control rate is greater than or equal to 5% and less than 20%). Besides, the “Post-emergence herbicidal activity, E. crusgalli (grade)” value with Echinochloa crusgalli (dosage 5 g/mu) was 2 (Grade 2: the growth control rate is greater than or equal to 20% and less than 40%). The “Post-emergence herbicidal activity, E. crusgalli (grade)” value with Echinochloa crusgalli (dosage 10 g/mu) is 3 (Grade 3: the growth control rate is greater than or equal to 40% and less than 60%). The “Post-emergence herbicidal activity, A. retroflexus (grade)” value in the data set with Amaranthus retroflexus (dosage 2.5 g/mu) is listed as 5 (Grade 5: the growth control rate is greater than or equal to 85%). The “Post-emergence herbicidal activity, A. retroflexus (grade)” value in the data set on Amaranthus retroflexus (dosage 5 g/mu) is on record as 5 (Grade 5: the growth control rate is greater than or equal to 85%). Moreover, in the data set on Amaranthus retroflexus (dosage 10 g/mu), the “Post-emergence herbicidal activity, A. retroflexus (grade)” value is given as 5 (Grade 5: the growth control rate is greater than or equal to 85%). Moreover, the “Post-emergence herbicidal activity, S. viridis (grade)” value in the data set on Setaria viridis (dosage 2.5 g/mu) is 2 (Grade 2: the growth control rate is greater than or equal to 20% and less than 40%). In addition, the “Post-emergence herbicidal activity, S. viridis (grade)” value in the data set on Setaria viridis (dosage 5 g/mu) is 3 (Grade 3: the growth control rate is greater than or equal to 40% and less than 60%). For the same compound, the “Post-emergence herbicidal activity, S. viridis (grade)” value in the data set with Setaria viridis (dosage 10 g/mu) is 4 (Grade 4: the growth control rate is greater than or equal to 60% and less than 85%).

The melting point is the temperature, or range, at which the solid turns liquid.
